Test system: CWR22-RV1 (prostate) cell lines
Assay: MTS growth inhibition assay, CWR22-RV1
Assay type: cell-based
Details: Homo sapiens, CWR22Rv1, separate experiments

SMILES | IC50 [nM]
C#CC[C@@H](Cc1cnc2nc(N)nc(N)c2n1)c1ccc(C(=O)N[C@@H](CCC(=O)O)C(=O)O)cc1 (single isomer, unassigned) [PDX-10a] | 13.3
C#CC[C@H](Cc1cnc2nc(N)nc(N)c2n1)c1ccc(C(=O)N[C@@H](CCC(=O)O)C(=O)O)cc1 (single isomer, unassigned) [PDX-10b] | 8.5
